From ChEMBL document CHEMBL1201862, “PubChem BioAssay data set” (2004)
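48-hour exposure; five concentrations; linearly interpolated endpoints. GI50 is the concentration that inhibits growth by half.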 Calls of active or inactive are those of the source. Cut-off read from the data, not from the text of the source: active = GI50 up to about 1.1 µM and inactive = higher.

What was measured:
Test in all cases: DTP human tumour cell line panel, 48 h
HOP-62 = tested on: HOP-62
SNB-19 = tested on: SNB-19
SNB-75 = tested on: SNB-75
M14 = tested on: M14
CCRF-CEM = tested on: CCRF-CEM
IGROV-1 = tested on: IGROV-1
UACC-62 = tested on: UACC-62
MDA-N = tested on: MDA-N
MDA-MB-231 = tested on: MDA-MB-231
KM12 = tested on: KM12
DU-145 = tested on: DU-145
A549 = tested on: A549
SK-MEL-2 = tested on: SK-MEL-2
786-0 = tested on: 786-0
COLO 205 = tested on: COLO 205
MCF7 = tested on: MCF7
OVCAR-3 = tested on: OVCAR-3
SR = tested on: SR
Hs-578T = tested on: Hs-578T
U-251 = tested on: U-251
ACHN = tested on: ACHN
NCI/ADR-RES = tested on: NCI/ADR-RES
NCI-H522 = tested on: NCI-H522
HCC 2998 = tested on: HCC 2998
UACC-257 = tested on: UACC-257
BT-549 = tested on: BT-549
MOLT-4 = tested on: MOLT-4
HCT-116 = tested on: HCT-116
HCT-15 = tested on: HCT-15
OVCAR-8 = tested on: OVCAR-8
Malme-3M = tested on: Malme-3M
SK-OV-3 = tested on: SK-OV-3
SF-295 = tested on: SF-295
RPMI-8226 = tested on: RPMI-8226
OVCAR-5 = tested on: OVCAR-5
NCI-H460 = tested on: NCI-H460
CAKI-1 = tested on: CAKI-1
UO-31 = tested on: UO-31
EKVX = tested on: EKVX
HT-29 = tested on: HT-29
HL-60 = tested on: HL-60
TK-10 = tested on: TK-10
NCI-H226 = tested on: NCI-H226
PC-3 = tested on: PC-3
SN12C = tested on: SN12C
MDA-MB-435 = tested on: MDA-MB-435
SF-268 = tested on: SF-268
SW-620 = tested on: SW-620
NCI-H23 = tested on: NCI-H23
LOX IMVI = tested on: LOX IMVI
K562 = tested on: K562
A498 = tested on: A498
SK-MEL-28 = tested on: SK-MEL-28
SF-539 = tested on: SF-539
T47D = tested on: T47D
SK-MEL-5 = tested on: SK-MEL-5
RXF 393 = tested on: RXF 393
OVCAR-4 = tested on: OVCAR-4
HOP-92 = tested on: HOP-92

O=C(Nc1ccccc1C(=O)Nc1nccs1)c1ccccc1
GI50 (HOP-62): 16.6 µM (inactive)
GI50 (SNB-19): 31.9 µM (inactive)
GI50 (SNB-75): 21.1 µM (inactive)
GI50 (M14): 19.7 µM (inactive)
GI50 (CCRF-CEM): 4.98 µM (inactive)
GI50 (IGROV-1): 35.8 µM (inactive)
GI50 (UACC-62): 25.2 µM (inactive)
GI50 (MDA-N): 19.5 µM (inactive)
GI50 (MDA-MB-231): 25.1 µM (inactive)
GI50 (KM12): 6.03 µM (inactive)
GI50 (DU-145): 13.6 µM (inactive)
GI50 (A549): 12.4 µM (inactive)
GI50 (SK-MEL-2): 5.22 µM (inactive)
GI50 (786-0): 16.4 µM (inactive)
GI50 (COLO 205): 4.04 µM (inactive)
GI50 (MCF7): 12.8 µM (inactive)
GI50 (OVCAR-3): 3.98 µM (inactive)
GI50 (SR): 7.31 µM (inactive)
GI50 (Hs-578T): 23.9 µM (inactive)
GI50 (U-251): 6.52 µM (inactive)
GI50 (ACHN): 14.3 µM (inactive)
GI50 (NCI/ADR-RES): 6.17 µM (inactive)
GI50 (NCI-H522): 14.3 µM (inactive)
GI50 (HCC 2998): 13.5 µM (inactive)
GI50 (UACC-257): 31 µM (inactive)
GI50 (BT-549): 15.1 µM (inactive)
GI50 (MOLT-4): 3.44 µM (inactive)
GI50 (HCT-116): 12.1 µM (inactive)
GI50 (HCT-15): 4.37 µM
GI50 (OVCAR-8): 54.5 µM (inactive)
GI50 (Malme-3M): 10.5 µM (inactive)
GI50 (SK-OV-3): 23.2 µM (inactive)
GI50 (SF-295): 25.8 µM (inactive)
GI50 (RPMI-8226): 6.65 µM (inactive)
GI50 (OVCAR-5): > 100 µM (inactive)
GI50 (NCI-H460): 3.81 µM (inactive)
GI50 (CAKI-1): 21.3 µM (inactive)
GI50 (UO-31): 7.89 µM (inactive)
GI50 (EKVX): 36.6 µM (inactive)
GI50 (HT-29): 4.44 µM (inactive)
GI50 (HL-60): 3.82 µM (inactive)
GI50 (TK-10): 25.6 µM (inactive)
GI50 (NCI-H226): 32.5 µM (inactive)
GI50 (PC-3): 2.45 µM (inactive)
GI50 (SN12C): 59 µM (inactive)
GI50 (MDA-MB-435): 33.7 µM (inactive)
GI50 (SF-268): 14.6 µM (inactive)
GI50 (SW-620): 25.6 µM (inactive)
GI50 (NCI-H23): 65.8 µM (inactive)
GI50 (LOX IMVI): 4.83 µM (inactive)
GI50 (K562): 11.2 µM (inactive)
GI50 (A498): 8.51 µM (inactive)
GI50 (SK-MEL-28): 20.7 µM (inactive)
GI50 (SF-539): 43 µM (inactive)
GI50 (T47D): 2.84 µM (inactive)
GI50 (SK-MEL-5): 4.55 µM (inactive)

NC(=O)C/C=C/CC(N)=O
GI50 (HOP-62): > 100 µM (inactive)
GI50 (SNB-19): > 100 µM (inactive)
GI50 (SNB-75): > 100 µM (inactive)
GI50 (M14): > 100 µM (inactive)
GI50 (CCRF-CEM): > 100 µM (inactive)
GI50 (IGROV-1): > 100 µM (inactive)
GI50 (UACC-62): > 100 µM (inactive)
GI50 (MDA-N): > 100 µM (inactive)
GI50 (MDA-MB-231): > 100 µM (inactive)
GI50 (KM12): > 100 µM (inactive)
GI50 (DU-145): > 100 µM (inactive)
GI50 (A549): > 100 µM (inactive)
GI50 (SK-MEL-2): > 100 µM (inactive)
GI50 (786-0): > 100 µM (inactive)
GI50 (COLO 205): > 100 µM (inactive)
GI50 (MCF7): > 100 µM (inactive)
GI50 (OVCAR-3): > 100 µM (inactive)
GI50 (Hs-578T): > 100 µM (inactive)
GI50 (U-251): > 100 µM (inactive)
GI50 (ACHN): > 100 µM (inactive)
GI50 (NCI/ADR-RES): > 100 µM (inactive)
GI50 (NCI-H522): > 100 µM (inactive)
GI50 (HCC 2998): > 100 µM (inactive)
GI50 (UACC-257): > 100 µM (inactive)
GI50 (BT-549): > 100 µM (inactive)
GI50 (MOLT-4): 0.259 µM (active)
GI50 (HCT-116): > 100 µM (inactive)
GI50 (HCT-15): > 100 µM
GI50 (RXF 393): > 100 µM (inactive)
GI50 (OVCAR-8): > 100 µM (inactive)
GI50 (Malme-3M): > 100 µM (inactive)
GI50 (SK-OV-3): > 100 µM (inactive)
GI50 (SF-295): > 100 µM (inactive)
GI50 (RPMI-8226): > 100 µM (inactive)
GI50 (OVCAR-5): > 100 µM (inactive)
GI50 (NCI-H460): > 100 µM (inactive)
GI50 (CAKI-1): > 100 µM (inactive)
GI50 (UO-31): > 100 µM (inactive)
GI50 (EKVX): > 100 µM (inactive)
GI50 (HT-29): > 100 µM (inactive)
GI50 (HL-60): > 100 µM (inactive)
GI50 (TK-10): > 100 µM (inactive)
GI50 (NCI-H226): > 100 µM (inactive)
GI50 (PC-3): > 100 µM (inactive)
GI50 (SN12C): > 100 µM (inactive)
GI50 (MDA-MB-435): > 100 µM (inactive)
GI50 (SF-268): > 100 µM (inactive)
GI50 (SW-620): > 100 µM (inactive)
GI50 (NCI-H23): > 100 µM (inactive)
GI50 (LOX IMVI): > 100 µM (inactive)
GI50 (OVCAR-4): > 100 µM (inactive)
GI50 (A498): > 100 µM (inactive)
GI50 (SK-MEL-28): > 100 µM (inactive)
GI50 (HOP-92): > 100 µM (inactive)
GI50 (SF-539): > 100 µM (inactive)
GI50 (T47D): > 100 µM (inactive)
GI50 (SK-MEL-5): > 100 µM (inactive)
